Measurements taken from patent publication US20100056516A1 (priority 2006, published 2010).
pIC50: −log10 of the molar value. Where two headings read alike, the source gives them in different places.

What was measured:
[1] = target: HIV-1 reverse transcriptase (RNase H) (Human immunodeficiency virus type 1 group M subtype B, UniProt P04585); test: ASH assay: RNase H mediated RNA cleavage (ECL format, BioVeris M384); assay type: biochemical
Procedure: Potency of a substance as an RNase H inhibitors can be determined by measuring its ability prevent RNase H catalyzed cleavage of the RNA strand in a RNA/DNA hybrid duplex substrate. RNase H activity is measured using a substrate generated by annealing the oligoribo-nucleotide 5′-rCrCrUrCrUrCrArArArArArCrArGrGrArGrCrArGrArArArGrArCrArArG (SEQ ID NO:1) to the oligodeoxyribonucleotide 5′-Biotin-[…] (SEQ ID NO:2). […] (SEQ ID NO:3). The resulting double-stranded duplex DNA product is quantitated in an ALPHA screen format using [streptavidin- and anti-fluorescein-coated beads (Packard Bioscience) following the manufacturer's guidelines and reading on a Fusion AlphaScreen instrument. Alternatively, the released 5′-Biotinylated DNA is annealed to a complementary oligodeoxyribonucleotide: 5′-ruthenium-[…] (SEQ ID NO:3). The resulting double-stranded duplex DNA product is quantitated in an ECL screen format using Dynabeads M280 coated with streptavidin (BioVeris Corporation) following the manufacturer's guidelines and reading on a BioVeris M384 Analyzer.

HIV integrase = HIV integrase (Human immunodeficiency virus type 1 group M subtype B, UniProt P04585); test: integrase strand transfer assay (STA); assay type: biochemical; settings: for IC50: STA (IC50, μM)
HXB2 virus = test: microbe, parasite or virus in culture; assay type: cell-based, HIV; settings: for IC50: Human immunodeficiency virus 1, HXB2, HeLaP4-2, read-out: SCIA-B (IC50, μM); for pIC50: Human immunodeficiency virus 1, HXB2, HeLaP4-2, read-out: antiviral IC50 (SCIA-B)
Method in brief: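 Single-cycle infectivity assay in HeLa P4-2 cells measuring inhibition of acute HIV infection, using HXB2 virus.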

HeLa P4-2 cell line = settings: human
Text: The HeLa P4-2 cell line used in the single cycle HIV infectivity Assay B of Example 270 was also used to determine compound cytotoxicity in the absence of viral infection.

[2] = IC50 in the STA assay, integrase strand transfer
[3] = integrase strand-transfer assay, Example 269
[4] = RNase H mediated RNA cleavage assay, Example 269, read-out: ASH (IC50)
[5] = integrase strand transfer, read-out: IC50 in the STA assay
[6] = integrase strand-transfer assay, Example 269, read-out: STA (IC50)

Row | SMILES | pIC50 [1] | pIC50 (HIV integrase; [2]) | IC50 (HIV integrase; [3]) | IC50 (HXB2 virus) | pIC50 (HXB2 virus) | Cytotoxicity (LD50, μM) (HeLa P4-2 cell line) | pIC50 [1, 4] | pIC50 (HIV integrase; [5]) | pIC50 (HIV integrase; [6])
1 | CNC(=O)c1c(O)c2cccnc2n(O)c1=O [Example 24, 1,4-Dihydroxy-N-methyl-2-oxo-1,2-dihydro-1,8-naphthyridine-3-carboxamide] | 6.74 | > 4.30 | 0.55 µM | 0.22 µM | > 4.00 | >100 µM |  |  | 
2 | O=c1c(-c2ccccn2)c(O)c2cccnc2n1O [Example 27, 1,4-Dihydroxy-3-pyridin-2-yl-1,8-naphthyridin-2(1B)-one] | 7.00 | > 4.30 | 0.06 µM | 0.5 µM | > 4.00 | 6.2 µM |  |  | 
3 | O=c1c(-c2cccc(C(F)(F)F)c2)c(O)c2cccnc2n1O [Example 28, 1,4-Dihydroxy-3-[3-(trifluoromethyl)phenyl]-1,8-naphthyridin-2(1H)-one] |  |  |  | 0.22 µM | > 4.00 | >100 µM | 6.92 | > 4.30 | 6.59
4 | O=c1c(-c2cccc(Cl)c2)c(O)c2cccnc2n1O [Example 33, 3-(3-Chlorophenyl)-1,4-dihydroxy-1,8-naphthyridin-2(1H)-one] |  |  |  | 0.66 µM | > 4.00 | >100 µM | 7.33 | > 4.30 | 6.74
5 | COc1cccc(-c2c(O)c3cccnc3n(O)c2=O)c1 [Example 40, 1,4-Dihydroxy-3-(3-methoxyphenyl)-1,8-naphthyridin-2(1H)-one] |  |  |  | 0.67 µM | > 4.00 | >100 µM | 6.96 | > 4.30 | 6.21
6 | O=c1c(-c2ccccc2)c(O)c2cc(F)cnc2n1O [Example 48, 6-Fluoro-1,4-dihydroxy-3-phenyl-1,8-naphthyridin-2(1H)-one] |  |  |  | 0.14 µM | > 4.00 | 31 µM | 6.70 | > 4.30 | 7.64
7 | CCOC(=O)c1c(O)c2cc(-c3cccc(CN4CCOCC4)c3)cnc2n(O)c1=O [Example 57, Ethyl 1,4-dihydroxy-6-[3-(morpholin-4-ylmethyl)phenyl]-2-oxo-1,2-dihydro-1,8-naphthyridine-3-carboxylate] |  |  |  | 0.1 µM | > 4.00 | 36 µM | 6.28 | > 4.30 | 7.16
8 | CCOC(=O)c1c(O)c2cc(-c3cccc(O)c3)cnc2n(O)c1=O [Example 59, Ethyl 1,4-dihydroxy-6-(3-hydroxyphenyl)-2-oxo-1,2-dihydro-1,8-naphthyridine-3-carboxylate] |  |  |  | 0.05 µM | > 4.00 | 20 µM | 6.82 | > 4.30 | 7.66
9 | O=c1c(Cc2ccccc2)c(O)c2cc(Cc3ccccc3)cnc2n1O [Example 66, 3,6-Dibenzyl-l,4-dihydroxy-1,8-naphthyridin-2(1H)-one] |  |  |  | 0.38 µM | > 4.00 | 34 µM | 6.31 | > 4.30 | 7.70
10 | CCOC(=O)c1c(O)c2cc(C(=O)N(C)CCc3ccccc3)cnc2n(O)c1=O [Example 81, Ethyl 1,4-dihydroxy-6-{[methyl(2-phenylethyl)amino]carbonyl}-2-oxo-1,2-dihydro-1,8-naphthyridine-3-carboxylate] |  |  |  | 0.06 µM | > 4.00 | >100 µM | 6.57 | > 4.30 | 7.57
11 | O=c1cc(Nc2ccc(-c3ccccc3)cc2)c2cccnc2n1O [Example 106, 4-(Biphenyl-4-ylamino)-1-hydroxy-1,8-naphthyridin-2(1H)-one] | 7.06 | > 4.30 | 0.22 µM | 0.43 µM | > 4.00 | 12 µM |  |  | 
12 | O=c1cc(NCc2ccc(CN3CCOCC3)cc2)c2cccnc2n1O [Example 111, 1-Hydroxy-4-{[4-(morpholin-4-ylmethyl)benzyl]amino}-1,8-naphthyridin-2(1H)-one] | 7.34 | > 4.30 | 1.8 µM | 0.12 µM | > 4.00 | >100 µM |  |  | 
